How the values were obtained:
[1] = system: polarized human bronchial epithelial cells; assay type: cell-based; conditions: for rAAV transduction from the apical surface: apical infection, data not shown; for rAAV transduction from the basolateral surface with ubiquitin ligase inhibitors: both inhibitors combined, 2 mM pretreatment 60 minutes, then 0.2 mM
Experimental: Primary culture of human bronchial epithelia and reagents utilized. Primary human airway epithelial cells were collected by enzymatic digestion of bronchial samples from lung transplants, as previously described (Kondo et al., 1991; Zabner et al., 1996). Isolated primary airway cells were seeded at a density of 5×10^5 cells/cm^2 onto collagen-coated Millicell-HA culture inserts (Millipore Corp., Bedford, Mass.). Primary cultures were grown at the air-liquid interface for more than 2 weeks, by which time differentiation into a mucociliary epithelium occurs. The culture medium, used to feed only the basolateral side of the cells, contained 49% DMEM, 49% Ham's F12 and 2% Ultraser G (BioSepra, Cedex, France). Dimethyl Sulphoxide (DMSO), camptothecin (Camp), etoposide (Etop), aphidicolin (Aphi), hydroxyurea (HU) and genistein (Geni) were purchased from Sigma (St. Louis, Mo.). Tripeptidyl aldehyde proteasome inhibitors N-Acetyl-L-Leucyl-L-Leucyl-Norleucine (LLnL) and benzyloxycarbonyl-L-leucyl-L-leucyl-L-leucinal (Z-LLL) were purchased from Calbiochem-Novabiochem Corporation (La Jolla, Calif.). Ubiquitin ligase (E3) inhibitors were obtained from Bachem Bioscience Inc. (King of Prussia, Pa.). Anti-AAV capsid monoclonal antibody (Anti-VP1, 2 and 3) was purchased from American Research Products (Belmont, Mass.) and anti-ubiquitin antibody was purchased from Santa Cruz Biotechnology Inc. (Santa Cruz, Calif.).
Transduction of polarized airway epithelial cells and primary human fibroblasts. rAAV infection of fully differentiated bronchial cells was performed as described in Duan et al. (1998). For infections from the apical surface of the airway cells, 5 μl rAAV was mixed with 50 μl of culture media and applied directly onto the apical compartment of Millicell inserts (MOI=10,000 particles/cell). During apical infection, the basolateral side of the Millicell was continuously bathed in culture media. Gene transfer to the basal side was performed by inverting Millicell inserts and applying viral vector to the bottom of the supporting filter membrane in a 50 μl volume for 2 hours. Subsequently, Millicell inserts were returned to the upright position, in the continued presence of the original viral inoculum plus an additional 450 μl of media. For both apical and basolateral infections, rAAV containing media was removed after 24 hours and replaced with either fresh culture media (for the basal side) or exposed to air (for the apical side). To test the effect of different agents on the efficiency of AAV transduction in polarized airway cells, 1 μl of each solution was mixed with AAV prior to infection of airway epithelia. Agents were usually presented during the 24 hours AAV infection period unless indicated otherwise. Most of the agents were dissolved in DMSO except for hydroxyurea (dissolved in phosphate buffered saline), H-Leu-Ala-OH (dissolved in 0.9% glacial acetic acid) and H-His-Ala-OH (dissolved in 50% methanol). The working concentrations of the agents were as follows: 0.1 μM camptothecin, 10 μM etoposide, 5 μg/ml aphidicolin, 40 mM hydroxyurea, 50 μM genistein, 40 μM LLnL and 4 μM Z-LLL. When the ubiquitin ligase (E3) inhibitors (H-Leu-Ala-OH and H-His-Ala-OH) were used, airway cells were pretreated with a combination of both inhibitors at a final concentration of 2 mM for 60 minutes prior to infection, followed by the continued presence of inhibitor (0.2 mM) during the entire 24 hours infection period from the basolateral surface. Studies involving EGTA treatment were performed by transiently treating the apical membrane of polarized airway epithelia with 3 mM EGTA in water for 10 minutes (Duan et al., 1998). Following hypotonic EGTA treatment, cultures were washed twice with culture medium and infected with rAAV in the presence or absence of 40 μM LLnL. Human primary fibroblast cells (P4) were maintained in 10% fetal bovine serum (FBS), 1% penicillin and streptomycin, and 89% DMEM. […]

HeLa cells = assay: AAV2 FLAG-Luc transduction of HeLa cells (luciferase screen of agents); assay type: cell-based; conditions: for increase of transduction efficiency: MOI of 100, 2 hours infection, at the doses tested; for relative potency of anthracyclines: 0.6, 3 and 6 μg/mL
Source text: A. To screen for agents that enhance rAAV transduction, any number of cells can be used. A range of concentrations of the agent to be tested can be determined based on, for instance desirable profiles of the agent, desirable toxicity profiles of the agent and/or concentration of the agents employed in vivo. The usefulness of the cell type chosen for the screen can be confirmed by testing compounds, e.g., proteosome inhibitors described in Example 1 such as LLnL and ZLL which are known to increase rAAV transduction. For example, a AAV2 FLAG-Luc vector was employed to transduce HeLa, ferret fibroblasts, IB3 and Huh (liver) cells in the presence or absence of the proteosome inhibitor MG132. MG132 was confirmed to enhance AAV transduction in all cell types tested: HeLa cell transduction was enhanced about 500-fold at 80 μM, and 200-fold at 40 μM, MG132; ferret fibroblast cell transduction was enhanced about 200-fold at 20 μM, and 17-fold at 4 μM, MG132; IB3-1 cell transduction was enhanced about 30 to 70-fold at 20 to 80 μM MG132; and Huh-7 cell transduction was enhanced about 15-fold at 20 to 80 μM MG132. There was no difference in rAAV transduction efficiency in HeLa cells when either DMSO or ETOH was used as a vehicle for MG132. B. HeLa cells were selected to screen for additional agents that enhance rAAV transduction, although any cell strain or line; or primary cells, may be employed. […] The range of concentrations of the agents to be tested were selected based on solubility profiles, toxicity profiles and/or concentrations previously employed in vivo.
HeLa cells were infected for 2 hours with an MOI of 100 rAAV in the presence of agents, e.g., ritonavir (Norvir) (1, 10 and 100 μM), cyclosporin A (2.5, 25 and 250 μg/ml), epoxomicin (1, 10 and 50 μM), alcacinomycin A (5, 50 or 500 μM), chymostatin (1, 10 and 100 μM), bestatin (1, 10 and 100 μM), doxorubicin (adriamycin) (0.1, 1 and 10 μM), camptothecin (camptosar) (1, 10 and 100 μM), eicosapentanoic acid (1, 10 and 100 μM), tannic acid (2, 20, 200 and 2000 μM), simvastatin, prodrug (2, 20 and 200 μM), cisplatin (0.2, 2 and 20 μg/mL), and chloroquine (4, 40 and 400 μM). Forty-eight hours after infection, cells were harvested for analysis. rAAV transduction was measured by removing the media from the cell cultures, adding 100 μL reporter lysis buffer (RLB) and freezing. The supernatant was thawed and transferred to microfuge tubes, freeze thawed an additional 2 times, clarified by centrifugation for 10 minutes and then analyzed for reporter gene expression on the luminometer. Protein was determined by Bradford analysis and results were expressed as relative light units per mg protein (RLU/mg).
Based on results with doxorubicin, a small number of FDA approved anthracyclines were tested for their relative in vitro and in vivo activities on AAV transduction. HeLa cells were infected with 100 ppc AAV2FLAG-Luc for 2 hours in the presence of different anthracyclines, e.g., doxorubicin, daunarubicin (Cerubidine), epirubicin (Ellence™), and idarubicin (Idamycin®), and cells harvested 48 hours later. The anthracyclines were pharmaceutical grade, and prepared according to the manufacturer's instructions. Prior to use, the agents were diluted in sterile water to an equal mass, e.g., 0.6 μg/mL, 3 μg/mL and 6 μg/mL. For example, 3 μg/mL idamycin increased luciferase expression by over 5000-fold while doxorubin increased luciferase expression by 58-fold. Generally, the potency was as follows: idarubicin>daunarubicin>epirubicin>doxorubicin.

CC[C@@]1(O)C(=O)OCc2c1cc1n(c2=O)Cc2cc3ccccc3nc2-1 [camptothecin]
rAAV transduction from the apical surface [1]: none of these agents facilitated rAAV transduction from the apical surface | increase of transduction efficiency (HeLa cells; harvested 48 hours): 15 fold

N.N.[Cl][Pt][Cl] [cisplatin]
increase of transduction efficiency (HeLa cells; harvested 48 hours): 16 fold

COc1cccc2c1C(=O)c1c(O)c3c(c(O)c1C2=O)C[C@@](O)(C(C)=O)C[C@@H]3O[C@H]1C[C@H](N)[C@H](O)[C@H](C)O1 [daunarubicin]
relative potency of anthracyclines (HeLa cells): idarubicin>daunarubicin>epirubicin>doxorubicin

CC[C@H](C)[C@H](NC(=O)[C@H]([C@@H](C)CC)N(C)C(C)=O)C(=O)N[C@H](C(=O)N[C@@H](CC(C)C)C(=O)[C@@]1(C)CO1)[C@@H](C)O [epoxomicin]
increase of transduction efficiency (HeLa cells; harvested 48 hours): ≤ 120 fold

COc1cc([C@@H]2c3cc4c(cc3[C@@H](O[C@@H]3O[C@@H]5CO[C@@H](C)O[C@H]5[C@H](O)[C@H]3O)[C@H]3COC(=O)[C@H]23)OCO4)cc(OC)c1O [etoposide]
rAAV transduction from the apical surface [1]: none of these agents facilitated rAAV transduction from the apical surface

O=c1c(-c2ccc(O)cc2)coc2cc(O)cc(O)c12 [genistein]
rAAV transduction from the apical surface [1]: none of these agents facilitated rAAV transduction from the apical surface

CC(=O)[C@]1(O)Cc2c(O)c3c(c(O)c2[C@@H](O[C@H]2C[C@H](N)[C@H](O)[C@H](C)O2)C1)C(=O)c1ccccc1C3=O [idamycin, idarubicin]
increase of luciferase expression (HeLa cells; 3 μg/mL, 100 ppc AAV2FLAG-Luc 2 hours, harvested 48 hours): over 5000 fold | relative potency of anthracyclines (HeLa cells): idarubicin>daunarubicin>epirubicin>doxorubicin

CC[C@H](C)C(=O)O[C@H]1C[C@@H](C)C=C2C=C[C@H](C)[C@H](CC[C@@H]3C[C@@H](O)CC(=O)O3)[C@H]21 [lovastatin]
outcome in cell line screening (HeLa cells; HeLa screen): negative results

CCC(C)(C)C(=O)O[C@H]1C[C@@H](C)C=C2C=C[C@H](C)[C@H](CC[C@@H]3C[C@@H](O)CC(=O)O3)[C@H]21 [simvastatin]
increase of transduction efficiency (HeLa cells; harvested 48 hours): 4 fold

O=C(OC[C@H]1O[C@@H](OC(=O)c2cc(O)c(O)c(OC(=O)c3cc(O)c(O)c(O)c3)c2)[C@H](OC(=O)c2cc(O)c(O)c(OC(=O)c3cc(O)c(O)c(O)c3)c2)[C@@H](OC(=O)c2cc(O)c(O)c(OC(=O)c3cc(O)c(O)c(O)c3)c2)[C@@H]1OC(=O)c1cc(O)c(O)c(OC(=O)c2cc(O)c(O)c(O)c2)c1)c1cc(O)c(O)c(OC(=O)c2cc(O)c(O)c(O)c2)c1 [tannic acid]
increase of transduction efficiency (HeLa cells; harvested 48 hours): 17 fold

H-His-Ala-OH
rAAV transduction from the basolateral surface with ubiquitin ligase inhibitors [1]: enhanced rAAV transduction from the basolateral surface

H-Leu-Ala-OH
rAAV transduction from the basolateral surface with ubiquitin ligase inhibitors [1]: enhanced rAAV transduction from the basolateral surface
